The text below walks through data of ChEMBL document CHEMBL1125459, “Synthesis and biological activity of 8a-phenyldecahydroquinolines as probes of PCP's binding conformation. A new PCP-like compound with increased in vivo potency” (J Med Chem, 1992).

A short description of assay [1]: Compound was evaluated for its affinity towards N-methyl-D-aspartate glutamate receptor in male Swiss Webster mice.
Another assay has as its system Mus musculus. The experiment in a line: Compound was evaluated in vivo for effective dose by subcutaneous administration in mice using cGMP assay. It is filed as functional. The note with it: sc.
A short description of assay [2]: Compound was evaluated for its affinity towards NMDA receptor in male Swiss Webster mice.

Usually IC50 stands for the concentration that inhibits the measured activity by half. A lower IC50 goes with greater potency. In turn, `c1ccc([C@]23CCCC[C@H]2CCCN3)cc1` came in with an IC50 in assay [1] of 467 nM.
By ED50 is commonly meant the midpoint of the dose-response relation. Read a low ED50 as an effect at a small dose. In the assay with Mus musculus, `C[C@]12N[C@H](Cc3ccccc31)c1ccccc12` [DIZOCILPINE] gave a median effective dose (ED50) of 0.3 mg/kg. The compound further gave an IC50 in assay [1] of 1.4 nM.
Consider `c1ccc([C@]23CCCC[C@@H]2CCCN3)cc1`, for which inhibition in assay [2] was half-maximal at 94.6 nM (IC50).
In turn, `c1ccc([C@@]23CCCC[C@H]2CCCN3)cc1` registered an ED50 with Mus musculus of 0.16 mg/kg. For the same compound, the IC50 in assay [1] is 66.3 nM.
Regarding `c1ccc(C2(N3CCCCC3)CCCCC2)cc1` [PHENCYCLIDINE], in assay [1], half-maximal inhibition (IC50) was put at 35 nM.
Regarding `c1ccc([C@@]23CCCC[C@@H]2CCCN3)cc1`, half-maximal inhibition in assay [2] (IC50) was put at 159 nM.
